Data from patent US9174948B2, “Desferrithiocin polyether analogues” (University of Florida Research Foundation, Inc., priority 2007, dated 2015).
“Also recorded” adds a separate entry of the source. Like-named read-outs stand apart in the source and are kept apart here. Marks after values point to notes of the source that are not given here.

How the values were obtained:
[1] = Chelator tissue distribution in rodents; format: in vivo, rat (male Sprague-Dawley); details: rats, sc, 300 μmol/kg
Method: Collection of Tissue Distribution Samples from Rodents: Male Sprague-Dawley rats (250-350 g) were given a single sc injection of the monosodium salts of 6 and 9 prepared as described above at a dose of 300 μmol/kg. At times 0.5, 1, 2, and 4 h after dosing (n=3 rats per time point) the animals were euthanized by exposure to CO2 gas. Blood was obtained via cardiac puncture into vacutainers containing sodium citrate. The blood was centrifuged, and the plasma was separated for analysis. The liver, heart, kidneys, and pancreas were then removed from the animals. […] J. Med. Chem. 2006, 49, 2772-2783]. In the current study, tissues from the (S)-3′-(HO)-DADFT-PE (9) and (S)-5′-(HO)-DADFT-PE (6) treated rats were prepared for HPLC analysis by homogenizing them in 0.5 N HClO4 at a ratio of 1:3 (w/v). Then, as a rinse, CH3OH at a ratio of 1:3 (w/v) was added and the mixture was stored at −20° C. for 30 min. This homogenate was centrifuged. The supernatant was diluted with mobile phase A (95% buffer [25 mM KH2PO4, pH 3.0]/5% CH3CN), vortexed, and filtered with a 0.2 μm membrane. Analytical separation was performed on a Discovery RP Amide C16 HPLC system with UV detection at 310 nm as described previously [Bergeron, R. J., Wiegand, J., Weimar, W. R., McManis, J. S., Smith, R. E. and Abboud, K. A. Iron Chelation Promoted by Desazadesferrithiocin Analogues: An Enantioselective Barrier. Chirality 2003, 15, 593-599; Bergeron, R. J., Wiegand, J., Ratliff-Thompson, K. and Weimar, W. R. The Origin of the Differences in (R)- and (S)-Desmethyldesferrithiocin: Iron-Clearing Properties. Ann. N.Y. Acad. Sci. 1998, 850, 202-216]. Mobile phase and chromatographic conditions were as follows: solvent A, 5% CH3CN/95% buffer; solvent B, 60% CH3CN/40% buffer. The concentrations were calculated from the peak area fitted to calibration curves by nonweighted least-squares linear regression with Rainin Dynamax HPLC Method Manager software (Rainin Instrument Co.).

[2] = tested on: Non-Iron-Overloaded Rodents; details: po, cited from earlier work; for Iron-Clearing Efficiency (%): rats, 300 μmol/kg, historical data
[3] = tested on: Iron-Overloaded Cebus apella Primates; details: po, cited from earlier work; for Iron-Clearing Efficiency (%): Cebus apella, 150 μmol/kg, historical data
[4] = tested on: kidney proximal and distal tubules; details: rats, po, 237 μmol/kg/dose twice daily (474 μmol/kg/day) for 7 days; cited from earlier work
[5] = earlier preclinical studies; cited from earlier work
[6] = biological target: Sudlow types I and II albumin binding sites (Rattus norvegicus, UniProt P02770); assay: Ligand-albumin binding in bile duct-cannulated rodents treated with sodium benzoate; details: rats; for Iron-Clearing Efficiency (%): chelator 300 μmol/kg po plus sodium benzoate 250 mg/kg/dose sc × 6 doses; for fold increase in ICE with sodium benzoate: chelator 300 μmol/kg po, with vs without sodium benzoate
Sequence of Sudlow types I and II albumin binding sites (P02770 25-608): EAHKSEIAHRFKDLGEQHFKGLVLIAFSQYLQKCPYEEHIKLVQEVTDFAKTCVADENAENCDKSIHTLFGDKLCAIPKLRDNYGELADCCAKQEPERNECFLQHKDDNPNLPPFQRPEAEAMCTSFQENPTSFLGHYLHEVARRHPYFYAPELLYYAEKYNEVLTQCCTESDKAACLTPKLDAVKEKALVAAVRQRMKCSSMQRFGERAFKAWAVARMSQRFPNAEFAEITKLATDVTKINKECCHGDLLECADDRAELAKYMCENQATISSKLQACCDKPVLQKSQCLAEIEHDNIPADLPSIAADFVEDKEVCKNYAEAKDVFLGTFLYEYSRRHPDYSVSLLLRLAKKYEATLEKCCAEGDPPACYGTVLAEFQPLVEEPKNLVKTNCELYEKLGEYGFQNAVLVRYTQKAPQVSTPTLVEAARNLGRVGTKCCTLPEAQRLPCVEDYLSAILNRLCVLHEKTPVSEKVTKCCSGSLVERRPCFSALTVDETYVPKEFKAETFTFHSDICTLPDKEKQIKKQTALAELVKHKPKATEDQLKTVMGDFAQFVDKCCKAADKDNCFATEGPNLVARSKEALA

[7] = tested on: Non-Iron-Overloaded Rodents; assay: Chelator-induced iron clearance in non-iron-overloaded, bile duct-cannulated rats; format: in vivo, rat (male Sprague-Dawley); details: po, 300 μmol/kg, 1 vs 3, 4 vs 6, 7 vs 9
Source text: Chelator-Induced Iron Clearance in Non-Iron-Overloaded Rodents. […] J. Med. Chem. 2006, 49, 2772-2783]. Recall that iron-clearing efficiency (ICE) is defined as (net iron excretion)/(total iron-binding capacity of the chelator), expressed as a percent. The relative ICE values of compounds 1 and 2 were in keeping with their log Papp values: the more lipophilic, the larger log Papp, the more efficient the chelator. […] However, the ICE trend was in keeping with the biliary ferrokinetics (FIG. 3) and liver concentration of the chelators, for example, 3>1 (FIG. 4).
Cannulation of Bile Duct in Non-Iron-Overloaded Rats has been described previously. […]. […] The urine sample(s) was taken at 24 h intervals. Sample collection and handling are as previously described [Bergeron, R. J., Streiff, R. R., Creary, E. A., Daniels, R. D., Jr., King, W., Luchetta, G., Wiegand, J., Moerker, T. and Peter, H. H. A Comparative Study of the Iron-Clearing Properties of Desferrithiocin Analogues with Desferrioxamine B in a Cebus Monkey Model. Blood 1993, 81, 2166-2173; Bergeron, R. J., Streiff, R. R., Wiegand, J., Vinson, J. R. T., Luchetta, G., Evans, K. M., Peter, H. and Jenny, H.-B. A Comparative Evaluation of Iron Clearance Models. Ann. N.Y. Acad. Sci. 1990, 612, 378-393].
In the iron-clearing experiments, the rats were given a single 300 μmol/kg dose of drugs 1-9 orally (po).
J. Med. Chem. 1999, 42, 2432-2440].

[8] = 2:1 complex with Fe(III); cited from earlier work
[9] = listed as (S)-4′-(HO)-DADFT (1)
[10] = listed as (S)-4′-(HO)-DADFT-PE (3)

Row | kidney concentration ([1]; 0.5 h) [nmol/g wet weight] | kidney concentration ([1]; 1 h) [nmol/g wet weight] | kidney concentration ([1]; 4 h) [nmol/g wet weight] | Iron-Clearing Efficiency (%) [6] [%] | fold increase in ICE with sodium benzoate [6] [fold] | Compound | Iron-Clearing Efficiency (%) [2] [%] | Iron-Clearing Efficiency (%) [3] [%] | distal tubules under light microscopy [4] | proximal tubules under light microscopy [4] | toxicity / nephrotoxicity in words [5] | further results
1 | 361±56 | 179±4 | 27±7 | 12.0±2.6 | 10.9 | C[C@]1(C(=O)O)CSC(c2ccc(O)cc2O)=N1 [Compound 1, (S)-2-(2,4-dihydroxyphenyl)-4,5-dihydro-4-methyl-4-thiazolecarboxylic acid] | 1.1±0.8 | 16.8±7.2 | moderate to severe vacuolization | regional, moderate to severe vacuolization in the proximal tubules, a loss of the brush border, and tubular extrusions toward the lumen | no geno- or reproductive toxicity and only mild nephrotoxicity at high doses | pancreas concentration ([1]; 4 h): undetectable; Iron-Clearing Efficiency (%) [2, 9]: 1.1 ± 0.8%; Iron-Clearing Efficiency (%) [6, 9]: 12.0 ± 2.6^b %
2 | 368±74 | 252±10 | 34±13 | 8.8±2.4 | 1.6 | COCCOCCOCCOc1ccc(C2=N[C@@](C)(C(=O)O)CS2)c(O)c1 [Compound 3, (S)-4,5-dihydro-2-[2-hydroxy-4-(3,6,9-trioxadecyloxy)phenyl]-4-methyl-4-thiazolecarboxylic acid] | 5.5±1.9 | 25.4±7.4 | occasional vacuolization but were otherwise normal | indistinguishable from those of the control animals | profoundly reduced nephrotoxicity; also recorded: profoundly less nephrotoxic | ICE of the polyether relative to that of the parent ligand [7]: 500%; concentration at 0.5 h ([1]; male, Sprague-Dawley, rat, plasma, 0.5 h): 194 ± 60 µM; decrease of liver concentration from 0.5 h to 1 h [1]: 6%; liver concentration ([1]; 0.5 h): 339±35 nmol/g wet weight; drop in plasma concentration relative to 0.5 h ([1]; 1 h): 28%; drop in plasma concentration relative to 0.5 h ([1]; 2 h): 92%; kidney concentration ([1]; 2 h): 41±3 nmol/g wet weight; pancreas concentration ([1]; 2 h): ≈ 30 nmol/g wet weight; drop in plasma concentration relative to 0.5 h ([1]; 4 h): 97%; Iron-Clearing Efficiency (%) [2, 10]: 5.5 ± 1.9%; Iron-Clearing Efficiency (%) [6, 10]: 8.8 ± 2.4^c %
3 |  |  |  |  |  | C[C@]1(C(=O)O)CSC(c2ncccc2O)=N1 [DFT, (S)-4,5-dihydro-2-(3-hydroxy-2-pyridinyl)-4-methyl-4-thiazolecarboxylic acid, reference compound] |  |  |  |  | severely nephrotoxic | ICE ([2]; bile duct-cannulated rodent model): 5.5%; ICE ([3]; iron-overloaded Cebus apella primate): 16%; cumulative formation constant [8]: 4e+29 M⁻¹
